Assay results as given in paper PMC12655637, “Design, Synthesis, and Mechanistic Study of Novel Ciprofloxacin/Thiazole Chalcone Hybrids as Potential Anticancer Agents” (Pharmaceuticals, 2025).

Tests used:
SK-MEL-28 = assay: NCI-60 screening, one-dose (10 µM) and five-dose, SRB; format: cell-based, human
SF-268 = assay: as above; format: cell-based, human
U251 = assay: as above; format: cell-based, human
UACC-62 = assay: as above; format: cell-based
SF-539 = assay: as above; format: cell-based, human
HCT-116 = assay: as above; format: cell-based, human; conditions: Homo sapiens
M14 = assay: as above; format: cell-based, human
[1] = tested on: 60 human cancer cell lines; assay: NCI-60 screening, full panel (mean growth, MID a, ranges over all lines)
Protocol: The screening was performed in accordance with the protocols set forth by the Drug Evaluation Department of the National Cancer Institute (NCI), Bethesda, USA, for in vitro anticancer efficacy at a single concentration of 10 µM against a panel of 60 cancer cell lines derived from nine distinct organs (https://dctd.cancer.gov/data-tools-biospecimens/data (accessed on 15 March 2023 and 6 January 2024)) [37].
The log10 GI50, log10 TGI, and log10 LC50 values were subsequently calculated as the averages of the log10 values of the respective individual GI50, TGI, and LC50 measurements. Negative numbers signified the most sensitive cell lines.
One way to measure a compound’s selectivity is to divide its subpanel MID^b (in μM) by the MID^a (in μM), which is the average sensitivity of all cell lines to the test agent.
At the National Cancer Institute (NCI) in Bethesda, USA, researchers examined the anticancer potential of the target compounds under investigation using nine panels of sixty different cell lines obtained from nine different cancers that were housed in the NCI library. Following the protocols laid out by the National Cancer Institute (https://dctd.cancer.gov/data-tools-biospecimens/data (accessed on 15 March 2023 and 6 January 2024)), the screening procedures were carried out [37]. The anticancer screening was carried out at a single dose of 10^−5 M; the results obtained were expressed as growth inhibition (%).
The anti-cancer potential of the tested compounds was evaluated at the National cancer institute (NCI), Bethesda, USA, against 9 panels of 60 various cell lines derived from nine human tumours available usually at NCI library. The procedures for the screening were described in details in NCI website (dttp://www.dtp.nci.nih.gov.) and were done according to NCI protocols. The anticancer screening was carried out at single dose of 10^-5 M. The results obtained as growth inhibition (%).
Cell lines were grown in Roswell Park Memorial Institute medium (RPMI) with 5% fetal bovine serum and 2% μM L-glutamine. Cancer cells are inoculated into 96 well microtiter plates in 100 μL at plating densities ranging from 5000 to 40,000 cells/well depending on the doubling time of individual cell lines. Then microtiter plates are incubated at 37 °C, 5% CO2, 95% air and 100% relative humidity for 24 h prior to the addition of the tested compounds. After 24 h, two plates of each cell line are fixed in situ with trichloroacetic acid (TCA). The tested compounds were dissolved in dimethyl sulfoxide (DMSO) and stored in the freezer prior to use. An aliquot of frozen drug concentrate is diluted to the desired concentration with complete medium containing 50 μg/mL gentamicin.

HOP-92 = assay: NCI-60 screening, one-dose (10 µM) and five-dose, SRB; format: cell-based, human
EKVX = assay: as above; format: cell-based, human; conditions: Homo sapiens, 10 μM, Non-Small-Cell Lung Cancer, read-out: Growth percentage
SNB-75 = assay: as above; format: cell-based, human
A498 = assay: as above; format: cell-based
OVCAR-5 = assay: as above; format: cell-based, human; conditions: five-dose, OVCAR-5
OVCAR-4 = assay: as above; format: cell-based, human
MOLT-4 = assay: as above; format: cell-based, human
NCI-H522 = assay: as above; format: cell-based, human; conditions: Homo sapiens
[2] = Homo sapiens, five-dose, SK-MEL-28
[3] = Homo sapiens, five-dose, SF-268
[4] = Homo sapiens, U-251, five-dose, U251
[5] = Homo sapiens, five-dose, UACC-62
[6] = Homo sapiens, five-dose, SF-539
[7] = Homo sapiens, five-dose, HOP-92
[8] = Homo sapiens, five-dose, SNB-75
[9] = Homo sapiens, five-dose, OVCAR-4
[10] = Homo sapiens, five-dose, MOLT-4

Cc1nc(SCC(=O)N2CCN(c3cc4c(cc3F)c(=O)c(C(=O)O)cn4C3CC3)CC2)sc1C(=O)/C=C/c1cccc(Cl)c1 [Compound 4b, (E)-7-(4-(2-((5-(3-(3-Chlorophenyl)acryloyl)-4-methylthiazol-2-yl)thio)acetyl)piperazin-1-yl)-1-cyclopropyl-6-fluoro-4-oxo-1,4-dihydroquinoline-3-carboxylic Acid]
activity at 10 µM (SK-MEL-28; Homo sapiens, 10 μM, SK-MEL-28, Melanoma, read-out: Growth percentage): 84.1%
GI50 (SK-MEL-28; [2]): 26.9 µM
IC50 (SK-MEL-28; [2]): 87.1 µM
CC50 (SK-MEL-28; Homo sapiens, five-dose, SK-MEL-28, read-out: LC50 (the source's name)): > 100 µM
TGI (SK-MEL-28; five-dose, SK-MEL-28): 100.0 µM
activity at 10 µM (SF-268; Homo sapiens, 10 μM, SF-268, CNS Cancer, read-out: Growth percentage): 76.1%
GI50 (SF-268; [3]): 22.4 µM
IC50 (SF-268; [3]): 53.7 µM
CC50 (SF-268; Homo sapiens, five-dose, SF-268, read-out: LC50 (the source's name)): > 100 µM
TGI (SF-268; five-dose, SF-268): 93.3 µM
activity at 10 µM (U251; Homo sapiens, U-251, 10 μM, U251, CNS Cancer, read-out: Growth percentage): 41.9%
GI50 (U251; [4]): 34.7 µM
IC50 (U251; [4]): > 100 µM
CC50 (U251; Homo sapiens, U-251, five-dose, U251, read-out: LC50 (the source's name)): > 100 µM
TGI (U251; five-dose, U251): 100.0 µM
activity at 10 µM (UACC-62; Homo sapiens, 10 μM, UACC-62, Melanoma, read-out: Growth percentage): 76.3%
GI50 (UACC-62; [5]): 20.9 µM
IC50 (UACC-62; [5]): > 100 µM
CC50 (UACC-62; Homo sapiens, five-dose, UACC-62, read-out: LC50 (the source's name)): > 100 µM
TGI (UACC-62; five-dose, UACC-62): 100.0 µM
activity at 10 µM (SF-539; Homo sapiens, SF-539, 10 μM, SF-539, CNS Cancer, read-out: Growth percentage): 22.1%
GI50 (SF-539; [6]): 3.7 µM
IC50 (SF-539; [6]): 15.1 µM
CC50 (SF-539; Homo sapiens, five-dose, SF-539, read-out: LC50 (the source's name)): > 100 µM
TGI (SF-539; five-dose, SF-539): 61.7 µM
activity at 10 µM (HCT-116; HCT-116, 10 μM, HCT-116, Colon Cancer, read-out: Growth percentage): 2.8%
GI50 (HCT-116; five-dose, HCT-116): 200 nM
IC50 (HCT-116; five-dose, HCT-116): 300 nM
activity at 10 µM (M14; Homo sapiens, 10 μM, M14, Melanoma, read-out: Growth percentage): 48.7%
GI50 (M14; Homo sapiens, five-dose, M14): 27.5 µM
IC50 (M14; Homo sapiens, five-dose, M14): 69.2 µM
CC50 (M14; Homo sapiens, five-dose, M14, read-out: LC50 (the source's name)): > 100 µM
TGI (M14; five-dose, M14): 100.0 µM
CC50 ([1]; Homo sapiens, read-out: LC50): 0.6 to 100 µM
activity at 10 µM ([1]; Homo sapiens, read-out: Mean growth percentage): 49.6%
Full-panel MG-MID ([1]; mean sensitivity across all cell lines in the panel): 70.3 µM
activity at 10 µM (HOP-92; Homo sapiens, 10 μM, HOP-92, Non-Small-Cell Lung Cancer, read-out: Growth percentage): 101%
GI50 (HOP-92; [7]): 44.7 µM
IC50 (HOP-92; [7]): > 100 µM
LC50 (concentration killing 50% of cells) (HOP-92; [7]): > 100 µM
TGI (HOP-92; five-dose, HOP-92): 100.0 µM
activity at 10 µM (EKVX): 83.9%
activity at 10 µM (SNB-75; Homo sapiens, 10 μM, SNB-75, CNS Cancer, read-out: Growth percentage): 102%
GI50 (SNB-75; [8]): 28.8 µM
IC50 (SNB-75; [8]): > 100 µM
CC50 (SNB-75; Homo sapiens, five-dose, SNB-75, read-out: LC50 (the source's name)): > 100 µM
TGI (SNB-75; five-dose, SNB-75): 77.6 µM
activity at 10 µM (A498; Homo sapiens, A498, 10 μM, A498, Renal Cancer, read-out: Growth percentage): 36%
GI50 (A498; Homo sapiens, five-dose, A498): > 100 µM
IC50 (A498; Homo sapiens, five-dose, A498): > 100 µM
CC50 (A498; Homo sapiens, five-dose, A498, read-out: LC50 (the source's name)): > 100 µM
TGI (A498; five-dose, A498): 100.0 µM
GI50 (OVCAR-5; Homo sapiens): > 100 µM
IC50 (OVCAR-5; Homo sapiens): > 100 µM
CC50 (OVCAR-5; Homo sapiens, read-out: LC50 (the source's name)): > 100 µM
TGI (OVCAR-5): 100.0 µM
activity at 10 µM (OVCAR-4; Homo sapiens, 10 μM, OVCAR-4, Ovarian Cancer, read-out: Growth percentage): 106%
GI50 (OVCAR-4; [9]): > 100 µM
IC50 (OVCAR-4; [9]): > 100 µM
CC50 (OVCAR-4; Homo sapiens, five-dose, OVCAR-4, read-out: LC50 (the source's name)): > 100 µM
TGI (OVCAR-4; five-dose, OVCAR-4): 100.0 µM
activity at 10 µM (MOLT-4; Homo sapiens, 10 μM, MOLT-4, Leukemia, read-out: Growth percentage): 66.1%
GI50 (MOLT-4; [10]): 12.9 µM
IC50 (MOLT-4; [10]): 21.9 µM
LC50 (concentration killing 50% of cells) (MOLT-4; [10]): 56.2 µM
TGI (MOLT-4; five-dose, MOLT-4): 26.9 µM
activity at 10 µM (NCI-H522; 10 μM, NCI-H522, Non-Small-Cell Lung Cancer, read-out: Growth percentage): 98.5%
GI50 (NCI-H522; five-dose, NCI-H522): > 100 µM
IC50 (NCI-H522; five-dose, NCI-H522): > 100 µM
LC50 (concentration killing 50% of cells) (NCI-H522; five-dose, NCI-H522): > 100 µM
